Data as given in ChEMBL document CHEMBL6153037, “Developing dual-responsive quinolinium prodrugs of 8-hydroxyquinoline by harnessing the dual chelating sites” (Eur J Med Chem, 2025).
Activity calls are given as the source filed them. No cut-off for these calls is given here.

Experiments:
[1] = Prodrug conversion in PBS at pH 7.4 containing H2O2 assessed as 8-HQ release by measuring retention time at 50 uM measured after 15 mins by HPLC analysis; format: ADME; details: buffer, pH 7.4, 0.25 h
[2] = Prodrug conversion in PBS at pH 7.4 containing H2O2 assessed as 4-hydroxybenzyl alcohol release by measuring retention time at 50 uM measured after 15 mins by HPLC analysis; format: ADME; details: buffer, pH 7.4, 0.25 h
[3] = Prodrug conversion in solution containing Cu(II) assessed as 8-HQ-Cu(II) complex formation at 50 uM measured upto 30 mins by UV-Vis spectrophotometry; format: ADME; details: 0.5 h
MDA-MB-231 [4] = test: Cytotoxicity against CuCl2-treated human MDA-MB-231 cells assessed as inhibition of cell viability incubated for 48 hrs by MTT assay; format: functional, cell-based; details: MDA-MB-231, 48 h
A549 = test: Cytotoxicity against CuCl2-treated human A549 cells assessed as inhibition of cell viability incubated for 48 hrs by MTT assay; format: functional, cell-based; details: A549, 48 h
OVCAR-3 = test: Cytotoxicity against CuCl2-treated human OVCAR-3 cells assessed as inhibition of cell viability incubated for 48 hrs by MTT assay; format: functional, cell-based; details: OVCAR-3, 48 h
HeLa = test: Cytotoxicity against CuCl2-treated human HeLa cells assessed as inhibition of cell viability incubated for 48 hrs by MTT assay; format: functional, cell-based
MDA-MB-231 [5] = test: Cytotoxicity against LPS-treated human MDA-MB-231 cells incubated for 48 hrs by MTT assay; format: functional, cell-based
MDA-MB-231 [6] = test: Cytotoxicity against NAC-treated human MDA-MB-231 cells incubated for 48 hrs by MTT assay; format: functional, cell-based
MCF-10A [7] = test: Cytotoxicity against human MCF-10A cells assessed as increase in red fluorescence at 0.4 to 0.8 uM by Calcein AM/PI staining based analysis; format: toxicity, cell-based; details: dose 0.4-0.8 µM
MDA-MB-231 [8] = test: Inhibition of DNA synthesis in human MDA-MB-231 cells by EdU incorporation assay; format: functional, cell-based
MDA-MB-231 [9] = test: Induction of apoptosis in human MDA-MB-231 cells assessed as viable cells at 0.4 uM incubated for 24 hrs by Annexin V-FITC/PI staining based flow cytometry (reference value: 86.2 %); format: functional; details: read-out: Activity
MDA-MB-231 [10] = test: Induction of apoptosis in human MDA-MB-231 cells assessed as early apoptotic cells at 0.8 uM incubated for 24 hrs by Annexin V-FITC/PI staining based flow cytometry (reference value: 7.39 %); format: functional
MDA-MB-231 [11] = test: Induction of apoptosis in human MDA-MB-231 cells assessed as late apoptotic cells at 0.8 uM incubated for 24 hrs by Annexin V-FITC/PI staining based flow cytometry (reference value: 5.81 %); format: functional
MDA-MB-231 [12] = test: Induction of apoptosis in human MDA-MB-231 cells assessed as necrotic cells at 0.8 uM incubated for 24 hrs by Annexin V-FITC/PI staining based flow cytometry (reference value: 0.59 %); format: functional
MDA-MB-231 [13] = test: Induction of apoptosis in human MDA-MB-231 cells assessed as viable cells at 1.2 uM incubated for 24 hrs by Annexin V-FITC/PI staining based flow cytometry (reference value: 86.2 %); format: functional; details: read-out: Activity
MDA-MB-231 [14] = test: Induction of apoptosis in human MDA-MB-231 cells assessed as early apoptotic cells at 1.2 uM incubated for 24 hrs by Annexin V-FITC/PI staining based flow cytometry (reference value: 7.39 %); format: functional
MDA-MB-231 [15] = test: Induction of apoptosis in human MDA-MB-231 cells assessed as necrotic cells at 1.2 uM incubated for 24 hrs by Annexin V-FITC/PI staining based flow cytometry (reference value: 0.59 %); format: functional
MCF-10A [16] = test: Induction of apoptosis in human MCF-10A cells assessed as early apoptotic cells at 0.4 uM incubated for 24 hrs by Annexin V-FITC/PI staining based flow cytometry (reference value: 2.96 %); format: toxicity, cell-based
MCF-10A [17] = test: Induction of apoptosis in human MCF-10A cells assessed as late apoptotic cells at 0.4 uM incubated for 24 hrs by Annexin V-FITC/PI staining based flow cytometry (reference value: 3.13 %); format: toxicity, cell-based
[18] = Induction of apoptosis in human MCF-10A cells assessed as viable cells at 0.8 uM incubated for 24 hrs by Annexin V-FITC/PI staining based flow cytometry (reference value: 92.5 %); format: toxicity, cell-based; details: read-out: Activity
MCF-10A [19] = test: Induction of apoptosis in human MCF-10A cells assessed as early apoptotic cells at 0.8 uM incubated for 24 hrs by Annexin V-FITC/PI staining based flow cytometry (reference value: 2.96 %); format: toxicity, cell-based
MCF-10A [20] = test: Induction of apoptosis in human MCF-10A cells assessed as late apoptotic cells at 0.8 uM incubated for 24 hrs by Annexin V-FITC/PI staining based flow cytometry (reference value: 3.13 %); format: toxicity, cell-based
MCF-10A [21] = test: Induction of apoptosis in human MCF-10A cells assessed as necrotic cells at 0.8 uM incubated for 24 hrs by Annexin V-FITC/PI staining based flow cytometry (reference value: 1.38 %); format: toxicity, cell-based
MCF-10A [22] = test: Induction of apoptosis in human MCF-10A cells assessed as early apoptotic cells at 1.2 uM incubated for 24 hrs by Annexin V-FITC/PI staining based flow cytometry (reference value: 2.96 %); format: toxicity, cell-based
MCF-10A [23] = test: Induction of apoptosis in human MCF-10A cells assessed as late apoptotic cells at 1.2 uM incubated for 24 hrs by Annexin V-FITC/PI staining based flow cytometry (reference value: 3.13 %); format: toxicity, cell-based
MCF-10A [24] = test: Induction of apoptosis in human MCF-10A cells assessed as necrotic cells at 1.2 uM incubated for 24 hrs by Annexin V-FITC/PI staining based flow cytometry (reference value: 1.38 %); format: toxicity, cell-based
MDA-MB-231 [25] = test: Anti-migration activity in human MDA-MB-231 cells at 0.4 uM incubated for 24 hrs by wound healing assay (reference value: 45.4 %); format: functional
MDA-MB-231 [26] = test: Anti-migration activity in human MDA-MB-231 cells at 0.8 uM incubated for 24 hrs by wound healing assay (reference value: 45.4 %); format: functional
MDA-MB-231 [27] = test: Anti-migration activity in human MDA-MB-231 cells at 0.4 uM incubated for 48 hrs by wound healing assay (reference value: 65.2 %); format: functional
MCF-10A [28] = test: Inhibition of mitochondrial membrane potential in human MCF-10A cells assessed as increase in green fluorescence at 0.8 uM incubated for 24 hrs by JC-1 dye based analysis; format: toxicity, cell-based
MDA-MB-231 [29] = test: Inhibition of mitochondrial membrane potential in human MDA-MB-231 cells assessed as increase in intracellular calcium level at 0.4 to 0.8 uM incubated for 24 hrs by Fluo-4 AM dye based analysis; format: functional, cell-based; details: dose 0.4-0.8 µM
MDA-MB-231 [30] = test: Antitumor activity against human MDA-MB-231 cells assessed as reduction in sphere volume incubated for 6 hrs followed by medium replacement without compound measured after 6 days by microscopic analysis; format: functional, cell-based
MDA-MB-231 [31] = test: Antitumor activity against human MDA-MB-231 cells xenografted in BALB/c nude mouse assessed as tumor growth inhibition at 10 to 20 mg/kg, iv administered every two days for 21 days; format: functional, organism-based; details: dose 10-20 mg/kg, time 21.0 day
MDA-MB-231 [32] = test: Antitumor activity against human MDA-MB-231 cells xenografted in BALB/c nude mouse at 20 mg/kg, iv administered every two days for 21 days relative to control; format: functional; details: MDA-MB-231, 504 h, time 21 day, read-out: TGI

## CC1(C)OB(c2ccc(C[n+]3cccc4cccc(O)c43)cc2)OC1(C)C.[Br-]
[1]
  Retention_time: 2.8 min
[2]
  Retention_time: 10.2 min
[3]
  Drug metabolism: metabolite_detected
MDA-MB-231 [4]
  IC50: 0.83 µM
A549
  IC50: 3.48 µM
OVCAR-3
  IC50: 6.63 µM
HeLa
  IC50: 11.2 µM
MDA-MB-231 [5]
  Activity: Active
MDA-MB-231 [6]
  Activity: inactive
MCF-10A [7]
  Activity: Non-toxic
MDA-MB-231 [8]
  inhibition: Active
MDA-MB-231 [9]
  viability at 0.4 µM: 71.2%
MDA-MB-231 [10]
  Activity: 40.3%
MDA-MB-231 [11]
  Activity: 27.9%
MDA-MB-231 [12]
  Activity: 7.08%
MDA-MB-231 [13]
  viability at 1.2 µM: 6.61%
MDA-MB-231 [14]
  Activity: 71%
MDA-MB-231 [15]
  Activity: 6.03%
MCF-10A [16]
  Activity: 2%
MCF-10A [17]
  Activity: 2.74%
[18]
  viability at 24 h, 0.8 µM: 93.7%
MCF-10A [19]
  Activity: 2.18%
MCF-10A [20]
  Activity: 3.77%
MCF-10A [21]
  Activity: 0.36%
MCF-10A [22]
  Activity: 2.12%
MCF-10A [23]
  Activity: 3.73%
MCF-10A [24]
  Activity: 0.84%
MDA-MB-231 [25]
  Activity: 16.5%
MDA-MB-231 [26]
  Activity: 7.3%
MDA-MB-231 [27]
  Activity: 34.6%
MCF-10A [28]
  Activity: Non-toxic
MDA-MB-231 [29]
  inhibition: Active
MDA-MB-231 [30]
  Activity: Active
MDA-MB-231 [31]
  inhibition: Active
MDA-MB-231 [32]
  inhibition in vivo at 20 mg/kg: 63.1%
